In one assay the target is human recombinant CTSC (Homo sapiens (Human), UniProt P53634). The assay is described as follows: CTSC inhibition assay (in vitro), fluorescent substrate GF-AFC. Format: biochemical. Particulars: 30 μmol/L GF-AFC, pH 5.0, 25° C. The method, then: 1. CTSC Inhibition Assay (In Vitro)
A test specimen was evaluated by a CTSC inhibition assay using a fluorescent substrate GF-AFC (Gly-Phe-7-Amino-4-trifluoromethylcoumarin, MP Biomedical, 03AFC03325). Since the GF-AFC is converted by CTSC to aminotrifluoromethylcoumarin having a specific fluorescence wavelength and the produced amount is proportional to CTSC activity, quantitative analysis was performed by measuring a fluorescence intensity with a plate reader. CTSC inhibition assay for each compound was performed using a polystyrene-made non-adhesive surface-treated black 384 well plate under the following conditions.
A human recombinant CTSC (R&D systems, 1071-CY) was dissolved in a CTSC active cocktail (20 ng/mL of human recombinant cathepsin L (R&D systems, 952-CY, 25 mmol/L MES/NaOH (pH: 6.0), 5 mmol/L dithiothreitol (DTT)) so as to be 100 ng/mL and incubated at 18° C. for 30 minutes. The solution was diluted with a CTSC assay buffer (50 mmol/L MES/NaOH (pH: 5.0), 50 mmol/L NaCl, 0.001% Triton X-100, mmol/L DTT) so as to be 2 ng/mL in a case of performing CTSC inhibition assay.
The test specimen was dissolved in dimethylsulfoxide (DMSO) at 10 mmol/L to prepare a stock solution. In a case where a solution in which the stock solution was diluted 15-fold with DMSO was used as the maximum evaluation concentration (0.667 mmol/L), 5-fold dilution was repeated in DMSO from the solution to prepare a serially diluted solution. 248.8 μL of the CTSC assay buffer was added to 1.12 μL of the serially diluted sample prepared in the DMSO to prepare a solution of a CTSC inhibition assay compound.
The final composition of the CTSC inhibition assay mixture was 0.66 ng/mL activated CTSC, 50 mmol/L MES/NaOH (pH: 5.0), 50 mmol/L NaCl, 0.001% Triton X-100, 5 mmol/L DTT, 30 μmol/L GF-AFC, and 0.15% DMSO, and the procedure was as follows. That is, 4 μL of the compound solution and 4 μL of the 2 ng/mL activated CTSC solution were mixed with each other in a 384 well plate and incubated at 25° C. for 30 minutes. Thereafter, 4 μL of the GF-AFC solution dissolved in the CTSC assay buffer was added to the mixture so as to be 90 μmol/L. After mixing to be uniform, a fluorescence emission intensity at 505 nm in a case of being excited at 390 nm after incubating at 25° C. for 1 hour was measured with a plate reader. A 4-parameter regression analysis was performed with GraphPad Prism (manufactured by GraphPad Software) from a plot of the fluorescence intensity at 505 nm and the sample concentration, and an IC50 value was calculated.
Results of test compounds of Formula (I) are shown in Table 1 as IC50 (nM) values for which 50% inhibition concentration is calculated based on CTSC inhibition (%). In the table, Ex indicates an example number.

The target of the next assay is CTSC in U937 cells (Homo sapiens (Human), UniProt P53634). The assay is described as follows: Intracellular CTSC inhibition assay (in vitro), LLOMe-induced cell death in U937 cells. Format: cell-based. Particulars: 3 hours culture, CellTiter-Glo. The method, then:
2. Intracellular CTSC Inhibition Assay (In Vitro)
A test specimen was evaluated by a degree of cell death in a case where a substrate LLOMe (L-Leucyl-L-Leucine methyl ester, hydrobromide salt, Sigma, 555045152) was added to U937 cells. The LLOMe is taken up into the cells by endocytosis and cleaved by CTSC. A product thereof induces lysosomal damage in cells and causes cell death in leukocytes and the like. Therefore, since the degree of cell death correlates with an amount of degradation of LLOMe, that is, with CTSC activity, by quantitatively analyzing the cell death, CTSC inhibitory activity of the test specimen in the cell was determined. CTSC inhibition assay was performed using a polystyrene-made white 384 well plate.
As the test specimen, a stock solution dissolved in DMSO was prepared so as to be 0.2 mmol/L, and in a case where a solution in which the stock solution was diluted 50-fold with a RPMI-1640 medium including 10% FBS was used as the maximum evaluation concentration (4000 nmol/L), a serially diluted solution was prepared by diluting the solution 3-fold with the medium. Thereafter, a 4-fold concentrated test specimen solution with the target final concentration was prepared.
U937 cells were cultured in a RPMI-1640 medium including 10% FBS, and diluted to prepare 90,000 cells/mL of cell suspension on the day of assay. 10 μL of the cell suspension was seeded per well. Next, 10 μL of the test specimen solution having a concentration 4 times the target final concentration was added thereto, and the mixture was allowed to stand for 30 minutes. Thereafter, 20 μL of a 300 μmol/L LLOMe solution dissolved in a RPMI-1640 medium including 10% FBS was added thereto, and the cells were cultured for 3 hours. After completion of the culture, 40 μL of CellTiter-Glo (registered trademark) reagent (Promega, G7570) was added to each well and mixed. After 15 minutes, 20 μL of the reaction solution in each well was transferred to a white 384 well plate, and a chemiluminescence intensity was measured with a plate reader. A 4-parameter regression analysis was performed with GraphPad Prism (manufactured by GraphPad Software) from a plot of the luminescence intensity and the sample concentration, and an IC50 value was calculated.
Results of test compounds of Formula (1) are shown in Table 2 as IC50 (nM) values for which 50% inhibition concentration is calculated based on CTSC inhibition (%). In the table, Ex indicates an example number.
In general terms: In ATP-based viability assays light output follows the ATP content of the culture.

Where a name gives a salt, the structure may show the parent alone. Where only a bound is given, the exact number is not on record here.

human recombinant CTSC, sequence (P53634 25-134): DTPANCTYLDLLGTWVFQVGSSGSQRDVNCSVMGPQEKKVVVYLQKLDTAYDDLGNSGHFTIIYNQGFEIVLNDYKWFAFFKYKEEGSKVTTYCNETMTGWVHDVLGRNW
human recombinant CTSC, sequence (P53634 231-394): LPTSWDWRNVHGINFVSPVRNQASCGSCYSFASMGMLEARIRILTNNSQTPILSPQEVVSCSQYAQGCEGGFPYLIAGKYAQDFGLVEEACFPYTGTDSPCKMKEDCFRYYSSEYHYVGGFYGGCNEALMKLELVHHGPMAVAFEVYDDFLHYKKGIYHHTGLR
human recombinant CTSC, sequence (P53634 395-463): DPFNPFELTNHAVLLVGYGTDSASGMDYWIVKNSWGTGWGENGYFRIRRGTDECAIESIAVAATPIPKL
CTSC in U937 cells, sequence (P53634 25-463): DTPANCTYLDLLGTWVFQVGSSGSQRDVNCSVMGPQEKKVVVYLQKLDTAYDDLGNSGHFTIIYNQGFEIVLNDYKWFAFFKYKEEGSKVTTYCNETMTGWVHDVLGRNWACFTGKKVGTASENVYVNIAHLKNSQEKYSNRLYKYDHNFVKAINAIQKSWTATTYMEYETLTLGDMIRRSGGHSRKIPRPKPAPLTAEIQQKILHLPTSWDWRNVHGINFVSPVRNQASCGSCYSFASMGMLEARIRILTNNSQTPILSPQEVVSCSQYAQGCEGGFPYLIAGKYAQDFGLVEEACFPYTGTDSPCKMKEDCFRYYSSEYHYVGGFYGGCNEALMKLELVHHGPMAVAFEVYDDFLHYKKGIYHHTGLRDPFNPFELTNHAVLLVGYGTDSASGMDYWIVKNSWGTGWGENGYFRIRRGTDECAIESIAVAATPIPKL

In general, IC50 refers to the concentration that inhibits the measured activity by half. Consider `CC(C)C1(c2nc(C3CC(F)(F)C3)no2)CCN(C(=O)[C@@H]2C[C@@H](O)C3(CCC3)CN2)CC1` [Example 1, (4-(3-(3,3-Difluorocyclobutyl)-1,2,4-oxadiazol-5-yl)-4-isopropylpiperidin-1-yl)((7S,9R)-9-hydroxy-6-azaspiro[3.5]nonan-7-yl)methanone], for which the IC50 is 1.63 nM on human recombinant CTSC and 0.49 nM at CTSC in U937 cells.
Take `O=C([C@@H]1C[C@@H](O)C2(CCC2)CN1)N1CCC(c2nc(C3CC(F)(F)C3)no2)(C(F)(F)F)CC1` [Example 2, (4-(3-(3,3-Difluorocyclobutyl)-1,2,4-oxadiazol-5-yl)-4-(trifluoromethyl)piperidin-1-yl)((7S,9R)-9-hydroxy-6-azaspiro[3.5]nonan-7-yl)methanone]: the values for the IC50 on human recombinant CTSC and against CTSC in U937 cells were 2.36 nM and 0.89 nM, respectively.
Take `O=C([C@@H]1C[C@@H](O)C2(CCC2)CN1)N1CCC(c2noc(C3CC(F)(F)C3)n2)(C(F)(F)F)CC1` [Example 3, (4-(5-(3,3-Difluorocyclobutyl)-1,2,4-oxadiazol-3-yl)-4-(trifluoromethyl)piperidin-1-yl)((7S,9R)-9-hydroxy-6-azaspiro[3.5]nonan-7-yl)methanone]: the results for the IC50 at human recombinant CTSC and on CTSC in U937 cells were 1.52 nM and 0.49 nM, respectively.
In the case of `O=C([C@@H]1CC[C@@]2(CCO2)CN1)N1CCC(c2nc(C3CCC(F)(F)CC3)cs2)(C(F)(F)F)CC1` [Example 4], the results for the IC50 on human recombinant CTSC and at CTSC in U937 cells were 4.85 nM and 5.64 nM, respectively.
As to `CC(C)C1(c2noc(C3CC(F)(F)C3)n2)CCN(C(=O)[C@@H]2C[C@@H](O)C3(CCC3)CN2)CC1` [Example 5], the values for the IC50 at human recombinant CTSC and against CTSC in U937 cells were 1.08 nM and 1.01 nM, respectively.
In the case of `CC(C)C1(c2noc(C3CCC(F)(F)CC3)n2)CN(C(=O)[C@@H]2C[C@@H](O)C3(CCC3)CN2)C1` [Example 6], the figures for the IC50 at human recombinant CTSC and against CTSC in U937 cells were 1.19 nM and 1.06 nM, respectively.
Take `CN(CC1CCC(F)(F)CC1)C(=O)C1(C(F)(F)F)CCN(C(=O)[C@@H]2CC[C@@]3(CCO3)CN2)CC1` [Example 7]: the values for the IC50 on human recombinant CTSC and against CTSC in U937 cells were 10.4 nM and 23.6 nM, respectively.
On the same counts, the results for `CN(CC1CCC(F)(F)CC1)C(=O)C1(C(F)(F)F)CCN(C(=O)[C@@H]2C[C@@H](O)C3(CCC3)CN2)CC1` [Example 8] are 1.6 nM and 1.62 nM.
Take `CC(C)C1(c2nc(C3CC(F)(F)C3)no2)CCN(C(=O)[C@@H]2CC[C@@]3(CCO3)CN2)CC1` [Example 9]: the IC50 on human recombinant CTSC was determined as 5.09 nM; at CTSC in U937 cells it was 11.4 nM.
With `O=C([C@@H]1CC[C@@]2(CCO2)CN1)N1CCC(c2nc(C3CC(F)(F)C3)no2)(C(F)(F)F)CC1` [Example 10], the IC50 at human recombinant CTSC came out at 39.3 nM; on CTSC in U937 cells, 162 nM.
On the same counts, the results for `O=C([C@@H]1CC[C@@]2(CCO2)CN1)N1CCC(c2nc(C3CCC(F)(F)CC3)no2)(C(F)(F)F)CC1` [Example 11] are 7.73 nM and 11.5 nM.
Take `CC(C)C1(c2nc(C3CCC(F)(F)CC3)no2)CCN(C(=O)[C@@H]2C[C@@H](O)C3(CCC3)CN2)CC1` [Example 12]: the IC50 is 1.03 nM on human recombinant CTSC and 0.34 nM on CTSC in U937 cells.
For the molecule `O=C([C@@H]1C[C@@H](O)C2(CCC2)CN1)N1CCC(c2nc(C3CCC(F)(F)CC3)no2)(C(F)(F)F)CC1` [Example 13], the IC50 at human recombinant CTSC worked out at 1.7 nM; against CTSC in U937 cells it was 0.19 nM.
On the same counts, the results for `CC(C)C1(c2nnc(C3CCC(F)(F)CC3)o2)CCN(C(=O)[C@@H]2C[C@@H](O)C3(CCC3)CN2)CC1` [Example 14] are 1.35 nM and 4 nM.
As to `CC(C)C1(C(=O)NC2CCC(F)(F)CC2)CN(C(=O)[C@@H]2C[C@@H](O)C3(CCC3)CN2)C1` [Example 15], the values for the IC50 on human recombinant CTSC and against CTSC in U937 cells were 1.9 nM and 791 nM, respectively.
Take `CC(C)C1(c2nnc(C3CCC(F)(F)CC3)o2)CN(C(=O)[C@@H]2C[C@@H](O)C3(CCC3)CN2)C1` [Example 16, (3-(5-(4,4-difluorocyclohexyl)-1,3,4-oxadiazol-2-yl)-3-isopropylazetidine-1-yl)((7S,9R)-9-hydroxy-6-azaspiro[3.5]nonan-7-yl)methanone trifluoroacetate]: the results for the IC50 on human recombinant CTSC and at CTSC in U937 cells were 3.17 nM and 19.2 nM, respectively.
Take `CC(C)C1(C(=O)N(C)CC2CCC(F)(F)CC2)CN(C(=O)[C@@H]2C[C@@H](O)C3(CCC3)CN2)C1` [Example 17]: the IC50 at human recombinant CTSC was 1.01 nM; on CTSC in U937 cells, 21.4 nM.
As to `CC(C)C1(c2nc(C3CC(F)(F)C3)no2)CN(C(=O)[C@@H]2C[C@@H](O)C3(CCC3)CN2)C1` [Example 18], the results for the IC50 on human recombinant CTSC and at CTSC in U937 cells were 3.12 nM and 2.33 nM, respectively.
Turning to `CC(C)C1(c2nc(C3CCC(F)(F)CC3)no2)CN(C(=O)[C@@H]2C[C@@H](O)C3(CCC3)CN2)C1` [Example 19], the IC50 at human recombinant CTSC stood at 1.23 nM; at CTSC in U937 cells, 0.98 nM.
Consider `CC(C)C1(C(=O)NCC2CCC(F)(F)CC2)CN(C(=O)[C@@H]2C[C@@H](O)C3(CCC3)CN2)C1` [Example 20], for which the IC50 on human recombinant CTSC came to 0.83 nM; against CTSC in U937 cells, 227 nM.
Consider `CC(C)C1(c2nc(C3CCC(F)(F)CC3)no2)CN(C(=O)[C@@H]2CC[C@@]3(CCO3)CN2)C1` [Example 21], for which the IC50 at human recombinant CTSC amounted to 2.51 nM; against CTSC in U937 cells it was 4.78 nM.
Turning to `O=C([C@@H]1C[C@@H](O)C2(CCC2)CN1)N1CCC(C(=O)NCC2CCC(F)(F)CC2)(C(F)(F)F)CC1` [Example 22], the IC50 came to 1.03 nM on human recombinant CTSC and 20.8 nM against CTSC in U937 cells.
For the molecule `CC(C)C1(c2noc(C3CCC(F)(F)CC3)n2)CCN(C(=O)[C@H]2NC3CCC2CC3)CC1` [Example 23], the IC50 on human recombinant CTSC was found to be 88.8 nM; at CTSC in U937 cells it was 60.9 nM.
For `CC(C)C1(c2noc(C3CCC(F)(F)CC3)n2)CCN(C(=O)[C@@H]2C[C@H](F)CN2)CC1` [Example 24], the IC50 at human recombinant CTSC was 151 nM; against CTSC in U937 cells, above 1000 nM.
With `CC(C)C1(c2noc(C3CCC(F)(F)CC3)n2)CCN(C(=O)[C@@H]2C[C@H](O)CN2)CC1` [Example 25], the IC50 at human recombinant CTSC and on CTSC in U937 cells was above 200 nM each time.
Consider `CC(C)C1(c2noc(C3CCC(F)(F)CC3)n2)CCN(C(=O)[C@H]2N[C@@H]3CC[C@H]2C3)CC1` [Example 26], for which the IC50 at human recombinant CTSC was above 200 nM; against CTSC in U937 cells it was 474 nM.
Turning to `CC(C)C1(C(=O)NCC2CCC(F)(F)CC2)CN(C(=O)[C@@H]2CC[C@@]3(CCO3)CN2)C1` [Example 27], the IC50 at human recombinant CTSC is 0.24 nM; on CTSC in U937 cells, 133 nM.
Turning to `CS[C@@H]1CN[C@H](C(=O)N2CCC(c3noc(C4CCC(F)(F)CC4)n3)(C(C)C)CC2)C1` [Example 28], the IC50 stood at 254 nM on human recombinant CTSC and 596 nM on CTSC in U937 cells.

For the origin of these results see patent US12522593B2, “Azacycloalkyl carbonyl cyclic amine compound” (Alivexis, Inc., priority 2022, dated 2026).
